Reference: publication PMC8621276, “Artemisinin Binds and Inhibits the Activity of Plasmodium falciparum Ddi1, a Retroviral Aspartyl Protease” (Pathogens, 2021)

Key:
Format in all cases: biochemical
[1] = target: T1, PfDdi1 (Plasmodium falciparum, UniProt Q8IM03); test: inhibition of fluorogenic peptide cleavage
T1 construct: gene PF3D7_1409300; full length (382 aa), His-tagged (pET-28b NcoI/XhoI), E. coli Rosetta (DE3), Ni-NTA; ~44 kDa plus processed ~34 kDa fragment
T1 sequence (Q8IM03 1-382): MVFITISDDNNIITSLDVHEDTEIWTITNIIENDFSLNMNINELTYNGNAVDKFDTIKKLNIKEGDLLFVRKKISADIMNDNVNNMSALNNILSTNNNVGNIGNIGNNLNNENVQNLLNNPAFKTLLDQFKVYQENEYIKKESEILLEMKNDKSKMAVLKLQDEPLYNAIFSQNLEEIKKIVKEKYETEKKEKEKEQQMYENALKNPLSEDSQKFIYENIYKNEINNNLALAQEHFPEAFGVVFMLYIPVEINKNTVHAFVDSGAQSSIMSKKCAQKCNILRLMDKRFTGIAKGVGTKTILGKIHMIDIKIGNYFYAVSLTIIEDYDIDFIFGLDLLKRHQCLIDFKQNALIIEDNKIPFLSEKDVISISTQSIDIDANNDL

[2] = target: T1, PfDdi1; test: inhibition of FRET peptide cleavage
[3] = target: T1, PfDdi1; test: inhibition of FRET peptide, AMC peptide and K48 polyubiquitin cleavage; conditions: 10 min preincubation, sodium acetate pH 5.0, 37 °C, 2.0 μM enzyme

`Cc1cccc(C)c1OCC(=O)N[C@@H](Cc1ccccc1)[C@@H](O)C[C@H](Cc1ccccc1)NC(=O)[C@H](C(C)C)N1CCCNC1=O` [LPV, Lopinavir] gave an inhibition at 50 µM [1] of ~23.5%.
In the case of `C[C@@H]1CC[C@H]2[C@@H](C)C(=O)O[C@@H]3O[C@@]4(C)CC[C@@H]1[C@]32OO4` [ART, artemisinin], the inhibition at 1 µM [2] is reported as 71.4%.
With `C[C@@H]1CC[C@H]2[C@@H](C)C(O)O[C@@H]3O[C@@]4(C)CC[C@@H]1[C@]32OO4` (stereo partly drawn) [DHA, Dihydroartemisinin] the “% inhibition at 1 μM” value [3] was “artemisinin and its derivative, DHA, significantly inhibited the ability of PfDdi1 to degrade the polyubiquitinated”.
